Data reported in ChEMBL document CHEMBL4138123, “Design, synthesis and biological evaluation of novel pyrazolochalcones as potential modulators of PI3K/Akt/mTOR pathway and inducers of apoptosis in breast cancer cells” (Eur J Med Chem, 2017).

Experiments:
[1] = test system: DU-145; experiment: Cytotoxicity against human DU145 cells assessed as cell growth at 100 uM after 48 hrs by sulforhodamine B assay relative to control; assay type: functional; conditions: DU-145, 48 h, read-out: Activity
[2] = test system: SNB-75; experiment: Cytotoxicity against human SNB75 cells assessed as cell growth at 100 uM after 48 hrs by sulforhodamine B assay relative to control; assay type: functional; conditions: SNB-75, 48 h, read-out: Activity
[3] = test system: IGROV-1; experiment: Cytotoxicity against human IGROV1 cells assessed as cell growth at 0.1 uM after 48 hrs by sulforhodamine B assay relative to control; assay type: functional; conditions: IGROV-1, 48 h, read-out: Activity
[4] = test system: SW-620; experiment: Cytotoxicity against human SW620 cells assessed as cell growth at 100 uM after 48 hrs by sulforhodamine B assay relative to control; assay type: functional; conditions: SW-620, 48 h, read-out: Activity
[5] = test system: SW-620; experiment: Cytotoxicity against human SW620 cells assessed as cell growth at 0.01 uM after 48 hrs by sulforhodamine B assay relative to control; assay type: functional; conditions: SW-620, 48 h, read-out: Activity
[6] = test system: HL-60(TB); experiment: Cytotoxicity against human HL-60(TB) cells assessed as cell growth at 100 uM after 48 hrs by sulforhodamine B assay relative to control; assay type: functional; conditions: HL-60, 48 h, read-out: Activity
[7] = test system: SNB-19; experiment: Cytotoxicity against human SNB19 cells assessed as cell growth at 0.1 uM after 48 hrs by sulforhodamine B assay relative to control; assay type: functional; conditions: SNB-19, 48 h, read-out: Activity
[8] = test system: Malme-3M; experiment: Cytotoxicity against human MALME-3M cells assessed as cell growth at 0.1 uM after 48 hrs by sulforhodamine B assay relative to control; assay type: functional; conditions: read-out: Activity
[9] = test system: SW-620; experiment: Cytotoxicity against human SW620 cells assessed as cell growth at 10 uM after 48 hrs by sulforhodamine B assay relative to control; assay type: functional; conditions: SW-620, 48 h, read-out: Activity
[10] = test system: SN12C; experiment: Cytotoxicity against human SN12C cells assessed as cell growth at 0.1 uM after 48 hrs by sulforhodamine B assay relative to control; assay type: functional; conditions: read-out: Activity
[11] = test system: MOLT-4; experiment: Cytotoxicity against human MOLT4 cells assessed as cell growth at 100 uM after 48 hrs by sulforhodamine B assay relative to control; assay type: functional; conditions: MOLT-4, 48 h, read-out: Activity
[12] = test system: SK-MEL-28; experiment: Cytotoxicity against human SK-MEL-28 cells assessed as cell growth at 10 uM after 48 hrs by sulforhodamine B assay relative to control; assay type: functional; conditions: SK-MEL-28, 48 h, read-out: Activity
[13] = test system: M14; experiment: Cytotoxicity against human M14 cells assessed as cell growth at 1 uM after 48 hrs by sulforhodamine B assay relative to control; assay type: functional; conditions: M14, 48 h, read-out: Activity
[14] = test system: MCF7; experiment: Cytotoxicity against human MCF7 cells assessed as cell growth at 0.1 uM after 48 hrs by sulforhodamine B assay relative to control; assay type: functional; conditions: MCF7, 48 h, read-out: Activity
[15] = test system: SK-MEL-28; experiment: Cytotoxicity against human SK-MEL-28 cells assessed as growth inhibition after 48 hrs by sulforhodamine B assay; assay type: functional; conditions: SK-MEL-28, 48 h
[16] = test system: SF-268; experiment: Cytotoxicity against human SF268 cells assessed as cell growth at 0.01 uM after 48 hrs by sulforhodamine B assay relative to control; assay type: functional; conditions: SF-268, 48 h, read-out: Activity
[17] = test system: HCT-116; experiment: Cytotoxicity against human HCT116 cells assessed as cell growth at 10 uM after 48 hrs by sulforhodamine B assay relative to control; assay type: functional; conditions: HCT-116, 48 h, read-out: Activity
[18] = test system: COLO 205; experiment: Cytotoxicity against human COLO205 cells assessed as cell growth at 100 uM after 48 hrs by sulforhodamine B assay relative to control; assay type: functional; conditions: COLO 205, 48 h, read-out: Activity
[19] = test system: HOP-62; experiment: Cytotoxicity against human HOP62 cells assessed as cell growth at 100 uM after 48 hrs by sulforhodamine B assay relative to control; assay type: functional; conditions: HOP-62, 48 h, read-out: Activity
[20] = test system: CCRF-CEM; experiment: Cytotoxicity against human CCRF-CEM cells assessed as cell growth at 0.01 uM after 48 hrs by sulforhodamine B assay relative to control; assay type: functional; conditions: read-out: Activity
[21] = test system: OVCAR-3; experiment: Cytotoxicity against human OVCAR3 cells assessed as cell growth at 0.1 uM after 48 hrs by sulforhodamine B assay relative to control; assay type: functional; conditions: OVCAR-3, 48 h, read-out: Activity
[22] = test system: SK-MEL-5; experiment: Cytotoxicity against human SK-MEL-5 cells assessed as cell growth at 0.1 uM after 48 hrs by sulforhodamine B assay relative to control; assay type: functional; conditions: SK-MEL-5, 48 h, read-out: Activity
[23] = test system: MCF7; experiment: Cytotoxicity against human MCF7 cells assessed as growth inhibition after 48 hrs by MTT assay; assay type: functional, cell-based; conditions: MCF7, 48 h
[24] = test system: RXF 393; experiment: Cytotoxicity against human RXF393 cells assessed as cell growth at 10 uM after 48 hrs by sulforhodamine B assay relative to control; assay type: functional; conditions: RXF 393, 48 h, read-out: Activity
[25] = test system: OVCAR-3; experiment: Cytotoxicity against human OVCAR3 cells assessed as cell growth at 1 uM after 48 hrs by sulforhodamine B assay relative to control; assay type: functional; conditions: OVCAR-3, 48 h, read-out: Activity
[26] = test system: CCRF-CEM; experiment: Cytotoxicity against human CCRF-CEM cells assessed as cell growth at 10 uM after 48 hrs by sulforhodamine B assay relative to control; assay type: functional; conditions: read-out: Activity
[27] = test system: UACC-62; experiment: Cytotoxicity against human UACC62 cells assessed as cell growth at 0.1 uM after 48 hrs by sulforhodamine B assay relative to control; assay type: functional; conditions: UACC-62, 48 h, read-out: Activity
[28] = test system: OVCAR-4; experiment: Cytotoxicity against human OVCAR4 cells assessed as growth inhibition after 48 hrs by sulforhodamine B assay; assay type: functional; conditions: OVCAR-4, 48 h
[29] = test system: Hs-578T; experiment: Cytotoxicity against human Hs 578T cells assessed as cell growth at 1 uM after 48 hrs by sulforhodamine B assay relative to control; assay type: functional; conditions: read-out: Activity
[30] = test system: NCI-H322M; experiment: Cytotoxicity against human NCI-H322M cells assessed as cell growth at 1 uM after 48 hrs by sulforhodamine B assay relative to control; assay type: functional; conditions: read-out: Activity
[31] = test system: SK-MEL-5; experiment: Cytotoxicity against human SK-MEL-5 cells assessed as growth inhibition after 48 hrs by sulforhodamine B assay; assay type: functional; conditions: SK-MEL-5, 48 h
[32] = test system: NCI-H522; experiment: Cytotoxicity against human NCI-H522 cells assessed as cell growth at 10 uM after 48 hrs by sulforhodamine B assay relative to control; assay type: functional; conditions: NCI-H522, 48 h, read-out: Activity
[33] = test system: HT-29; experiment: Cytotoxicity against human HT-29 cells assessed as cell growth at 10 uM after 48 hrs by sulforhodamine B assay relative to control; assay type: functional; conditions: HT-29, 48 h, read-out: Activity
[34] = test system: BT-549; experiment: Cytotoxicity against human BT549 cells assessed as growth inhibition after 48 hrs by sulforhodamine B assay; assay type: functional; conditions: BT-549, 48 h
[35] = test system: HT-29; experiment: Cytotoxicity against human HT-29 cells assessed as cell growth at 1 uM after 48 hrs by sulforhodamine B assay relative to control; assay type: functional; conditions: HT-29, 48 h, read-out: Activity
[36] = test system: IGROV-1; experiment: Cytotoxicity against human IGROV1 cells assessed as cell growth at 1 uM after 48 hrs by sulforhodamine B assay relative to control; assay type: functional; conditions: IGROV-1, 48 h, read-out: Activity

Q: Which results are given for `COc1ccc(-c2cc(/C=C/C(=O)c3ccc(OC)c(OC)c3)[nH]n2)cc1`?
A: growth at 100 µM [1]: -80%; growth at 100 µM [2]: -100%; growth at 0.1 µM [3]: 91%; growth at 100 µM [4]: -55%; growth at 0.01 µM [5]: 99%; growth at 100 µM [6]: -43%; growth at 0.1 µM [7]: 90%; growth at 0.1 µM [8]: 89%; growth at 10 µM [9]: -52%; growth at 0.1 µM [10]: 93%; growth at 100 µM [11]: -33%; growth at 10 µM [12]: -95%; growth at 1 µM [13]: 97%; growth at 0.1 µM [14]: 88%; GI50 [15]: 1.65 µM; LC50 [15]: 5.74 µM; TGI [15]: 3.07 µM; growth at 0.01 µM [16]: 101%; growth at 10 µM [17]: -78%; growth at 100 µM [18]: -77%; growth at 100 µM [19]: -71%; growth at 0.01 µM [20]: 102%; growth at 0.1 µM [21]: 104%; growth at 0.1 µM [22]: 93%; IC50 [23]: 0.5 µM; growth at 10 µM [24]: -82%; growth at 1 µM [25]: 62%; growth at 10 µM [26]: -39%; growth at 0.1 µM [27]: 93%; GI50 [28]: 0.59 µM; LC50 [28]: 28.4 µM; TGI [28]: 3.87 µM; growth at 1 µM [29]: 81%; growth at 1 µM [30]: 72%; GI50 [31]: 1.77 µM; LC50 (concentration killing 50% of cells) [31]: 7.83 µM; TGI [31]: 3.72 µM; growth at 10 µM [32]: -68%; growth at 10 µM [33]: -66%; GI50 [34]: 1.68 µM; LC50 (concentration killing 50% of cells) [34]: 7.4 µM; TGI [34]: 3.53 µM; growth at 1 µM [35]: 77%; growth at 1 µM [36]: 77%
